Assays:
D458 cells [1] = assay: Proliferation assay D458; format: cell-based, human; conditions: D458, stable knockdown of PVT1ts vs sh.Cntrl; two-way ANOVA
MYC [2] = assay: Western blot of MYC in D458; format: cell-based, human; conditions: D458, stable knockdown of PVT1ts vs sh.Cntrl; n=3, unpaired t-test
Protocol: For whole-cell lysate, the cell pellet was resuspended in RIPA buffer (Cell Signaling Technologies, Danvers, MA) supplemented with a protease inhibitor cocktail (Cell Signaling Technologies) and incubated on ice for 20 minutes. The lysate was then centrifuged at 14,000 revolutions/minute for 10 minutes at 4°C, and the supernatant was harvested. Protein concentration was quantified by BCA Protein Assay Kit (Thermo Fisher Scientific) as per kit protocol. Next, 20 μg of whole-cell lysate was electrophoresed on a 4%–20% gradient polyacrylamide gel with SDS (Bio-Rad, Hercules, CA) and electroblotted onto polyvinylidene difluoride membranes (Bio-Rad). Membranes were blocked in Tris-buffered saline with 5% nonfat milk and 0.1% Tween and probed with antibodies. Bound proteins were detected with horseradish-peroxidase–conjugated secondary antibodies (Cell Signaling Technologies) and SuperSignal West Femto (Thermo Fisher Scientific). Antibodies used were anti-c-MYC (Cell Signaling Technology, 5605, anti-Phospho-c-MYC (Ser62) (Cell Signaling Technology, 13748), anti-β ACTIN (Cell Signaling Technology, 8457), anti-Phospho-p44/42 (Erk1/2) (Thr202/Tyr204) (Cell Signaling Technology, 4370), anti-p44/42 (Erk1/2) (Cell Signaling Technology, 4695), anti-Phospho-MEK1/2 (Ser217/221) (Cell Signaling Technology, 9154), anti-MEK1/2 (Cell Signaling Technology, 9122), anti-Phospho-p90RSK (Ser380) (Cell Signaling Technology, 11989), anti-RSK1/RSK2/RSK3 (Cell Signaling Technology, 9355), Anti-Rabbit IgG, HRP-linked Antibody (Cell Signaling Technology, 7074). Anti-FFX (Firefox) monoclonal antibodies were custom produced by Proteintech using FFX residues 13–104 as epitope.
The HNB ORF and eGFP (control) were cloned in an inducible lentivirus expression, TRE-gateway plasmid (pLIX_403, Addgene, #41395). Lentivirus was produced in HEK293T cells using the protocol described above. D458, NCI-H1792 and COLO 320DM cells were transfected with inducible HNB lentivirus and selected with 1 μg/mL concentration of Puromycin. Selected cells were seeded at a concentration of 4 × 10^5 cells per well. After 24 hours of seeding, the cells were treated with 1 μg/mL Doxycycline for 48 hours. The cells were then lysed using RIPA buffer and 1X protease inhibitor cocktail. The protein lysates were collected and quantified using the previously described protocol. 20 μg of whole-cell lysate was electrophoresed on a 4%–20% gradient polyacrylamide gel with SDS (Bio-Rad, Hercules, CA) and electroblotted onto polyvinylidene difluoride membranes (Bio-Rad). […] Bound proteins were detected with horseradish-peroxidase–conjugated secondary antibodies (Cell Signaling Technologies) and SuperSignal West Femto (Thermo Fisher Scientific). […]

D458 cells [3] = assay: Orthotopic transplantation of D458 into brains of immunocompromised mice; format: in vivo; conditions: D458 sh.RNA1-PVT1ts vs sh.Cntrl in mouse brain; bioluminescence day 9, 14, 21; n=10 each, unpaired t-test
Protocol: All animal procedures were conducted in accordance with the guidelines established by the Institutional Animal Care and Use Committee of Sanford Burnham Prebys Medical Discovery Institute. Efforts were made to minimize animal suffering and to reduce the number of animals used as per the guidelines of AAALAC International and a Multiple Project Assurance A3053–1 is on file in the OLAW, DHHS.

MYC [4] = assay: Western blot of MYC in U2OS; format: cell-based, human; conditions: si.PVT1ts vs si.Ctrl, n=3, unpaired t-test
Protocol: (§1) For whole-cell lysate, the cell pellet was resuspended in RIPA buffer (Cell Signaling Technologies, Danvers, MA) supplemented with a protease inhibitor cocktail (Cell Signaling Technologies) and incubated on ice for 20 minutes. The lysate was then centrifuged at 14,000 revolutions/minute for 10 minutes at 4°C, and the supernatant was harvested. Protein concentration was quantified by BCA Protein Assay Kit (Thermo Fisher Scientific) as per kit protocol. Next, 20 μg of whole-cell lysate was electrophoresed on a 4%–20% gradient polyacrylamide gel with SDS (Bio-Rad, Hercules, CA) and electroblotted onto polyvinylidene difluoride membranes (Bio-Rad). Membranes were blocked in Tris-buffered saline with 5% nonfat milk and 0.1% Tween and probed with antibodies. Bound proteins were detected with horseradish-peroxidase–conjugated secondary antibodies (Cell Signaling Technologies) and SuperSignal West Femto (Thermo Fisher Scientific). […]
Supplementary Figure 10: FFX protein augments MYC expression (A) Western blot analysis of MYC expression in U2OS cells ectopically transduced with constructs expressing GFP (control) or FFX. […] (C&D) Western blot analysis and quantification of MYC expression in U2OS cells transduced with GFP (control), FFX, FFX(CO), and FFX ATG>TGA. […]

MYC [5] = assay: Western blot of MYC in DU-145; format: cell-based, human; conditions: DU-145, si.PVT1ts vs si.Ctrl; n=3, unpaired t-test
Protocol: as §1

DU-145 cells = assay: Proliferation assay DU-145; format: cell-based, human; conditions: DU-145, si.PVT1ts vs si_ctrl; n=3, two-way ANOVA
Excerpt: (§2) Cancer cell lines: COLO-320DM, SK-PN-DW, U2OS, BxPC-3, DU145, SKBR-3 and, NCI-H1792 were obtained from American Type Culture Collection (Rockville, MD) and grown in their required growth medium per the American Type Culture Collection description. D458 and MB002 were obtained from Dr. Michael Taylor’s lab at SickKids hospital, Toronto. Cell line identity for the master stocks were verified by STR genotyping (IDEXX BioResearch)
(§3) Supplementary Figure 14: Analysis of Cell Proliferation in MYC/PVT1 Neutral Cell Lines
(§4) (U2OS, BxPC-3, DU-145) following Transfection with si_PVT1ts or si_ctrl: Each experiment
(§5) was performed in triplicate (n=3), and statistical significance was determined using two-way
(§6) ANOVA (P values indicated)
(§7) .CC-BY 4.0 International licenseavailable under a
(§8) (which was not certified by peer review) is the author/funder, who has granted bioRxiv a license to display the preprint in perpetuity. It is made
(§9) The copyright holder for this preprintthis version posted February 22, 2025.; https://doi.org/10.1101/2025.02.17.638454doi: bioRxiv preprint […]

MYC [6] = assay: Western blot of MYC in BxPC-3; format: cell-based, human; conditions: BxPC-3, si.PVT1ts vs si.Ctrl; n=3, unpaired t-test
Protocol: as §1

U2OS cells = assay: Proliferation assay U2OS; format: cell-based, human; conditions: si.PVT1ts vs si_ctrl, n=3, two-way ANOVA
Excerpt: as §2, §3, §4, §5, §6, §7, §8, §9

BxPC-3 cells = assay: Proliferation assay BxPC-3; format: cell-based, human; conditions: BxPC-3, si.PVT1ts vs si_ctrl; n=3, two-way ANOVA
Excerpt: as §2, §3, §4, §5, §6, §7, §8, §9

Substance	cellular proliferation (D458 cells [1])	MYC protein levels (MYC [2])	tumor growth after orthotopic injection (D458 cells [3])	MYC protein levels (MYC [4])	MYC protein levels (MYC [5])	cellular proliferation (DU-145 cells)	MYC protein levels (MYC [6])	cellular proliferation (U2OS cells)	cellular proliferation (BxPC-3 cells)
shRNA1-PVT1ts: shRNA against PVT1ts, CCGGGGACAGCTTCAACCCATTACG CTCGAGCGTAATGGGTTGAAGCTGTCCTTTTTG (CCGGGGACAGCTTCAACCCATTACGCTCGAGCGTAATGGGTTGAAGCTGTCCTTTTTG)	increased proliferation	increased proliferation (Figure 4D) and MYC protein levels	grew significantly more aggressively than controls						
shRNA2-PVT1ts: shRNA against PVT1ts, CCGGACCTATGAGCTTTGAATAATT CAAGAGATTATTCAAAGCTCATAGGTTTTTT (CCGGACCTATGAGCTTTGAATAATTCAAGAGATTATTCAAAGCTCATAGGTTTTTT)	increased proliferation	increased proliferation (Figure 4D) and MYC protein levels							
si.PVT1ts: siRNA targeting variants containing exons 7–9, 5’-ACCUAUGAGCUUUGAAUAA-3’ (other strand not given here)				increase in MYC protein levels	increase in MYC protein levels	proliferate faster	increase in MYC protein levels	proliferate faster	proliferate faster
